According to ChEMBL document CHEMBL1142317, “In vitro antitumor activity of the water soluble copper(I) complexes bearing the tris(hydroxymethyl)phosphine ligand” (J Med Chem, 2008):

Legend:
Format in all cases: functional, cell-based
Daudi = experiment: Cytotoxicity against human Daudi cells after 48 hrs by MTT assay
HL-60 = experiment: Cytotoxicity against human HL60 cells after 48 hrs by MTT assay; details: HL-60, 48 h
HeLa = experiment: Cytotoxicity against human HeLa cells after 48 hrs by MTT assay
HCT-15 = experiment: Cytotoxicity against human HCT15 cells after 48 hrs by MTT assay; details: HCT-15, 48 h
HepG2 = experiment: Cytotoxicity against human HepG2 cells after 48 hrs by MTT assay; details: HepG2, 48 h
A549 = experiment: Cytotoxicity against human A549 cells after 48 hrs by MTT assay; details: A549, 48 h
Caco-2 = experiment: Cytotoxicity against human CaCo2 cells after 48 hrs by MTT assay; details: Caco-2, 48 h
MCF7 = experiment: Cytotoxicity against human MCF7 cells after 48 hrs by MTT assay; details: MCF7, 48 h
A-375 = experiment: Cytotoxicity against human A375 cells after 48 hrs by MTT assay; details: A-375, 48 h
LoVo [1] = experiment: Cytotoxicity against human multidrug resistant LoVo cells after 48 hrs by MTT assay
LoVo [2] = experiment: Cytotoxicity against human LoVo cells after 48 hrs by MTT assay

OCP(CO)CCP(CO)CO
IC50 (Daudi): > 100 µM | IC50 (HL-60): 83.7 µM | IC50 (HeLa): > 100 µM | IC50 (HCT-15): 91.7 µM | IC50 (HepG2): 71.7 µM | IC50 (A549): > 100 µM | IC50 (Caco-2): 84.1 µM | IC50 (MCF7): > 100 µM | IC50 (A-375): 73.2 µM

COc1cccc2c1C(=O)c1c(O)c3c(c(O)c1C2=O)C[C@@](O)(C(=O)CO)C[C@@H]3O[C@H]1C[C@H](N)[C@H](O)[C@H](C)O1 [DOXORUBICIN]
IC50 (LoVo [1]): 44.9 µM | IC50 (LoVo [2]): 1.46 µM

OCP(CO)CO [TRIS(HYDROXYMETHYL)PHOSPHINE]
IC50 (Daudi): > 100 µM | IC50 (HL-60): 68.6 µM | IC50 (HeLa): > 100 µM | IC50 (HCT-15): > 100 µM | IC50 (HepG2): 98.7 µM | IC50 (A549): 72.9 µM | IC50 (Caco-2): > 100 µM | IC50 (MCF7): 64.2 µM | IC50 (A-375): 88.7 µM
